Legend:
[1] = test system: thrombin mediated platelet GPIIbIIIa activation; test: Flow cytometry: thrombin mediated GPIIbIIIa activation in washed platelets; type: cell-based, human; details: for Addition of the effect of RWJ-56110 on thrombin and the effect of the compound on PAR1-AP: sum of separate inhibitory effects, 1 µM compound, 10 µM RWJ-56110
Procedure: (§1) Briefly, 60 µL of washed platelets at a concentration of 1.5×10^7 platelets/mL were added to polystyrene tubes. Anti-CD62P antibody or PAC-1 antibody were diluted (per manufacturer protocol) in Tyrode’s buffer containing 0.1% BSA. 40 µL of diluted antibody was added to the platelets and allowed to bind for 5 minutes. Platelets were pre-treated with indicated concentrations of antagonist or DMSO control for 5 minutes followed by addition of PAR1-AP or PAR4-AP for 10 minutes. Platelet activity was quenched by the addition ice cold 1.5% paraformaldehyde followed by dilution in 1X phosphate buffered saline. The final DMSO concentration was 0.5%. Platelets were stored up to 18 hours at 4°C before flow cytometric analysis. Analysis was carried out on a BD FACS Canto II (Franklin Lakes, NJ). Fluorescent intensity was determined for 100,000 events within the platelet gate. Data was collected and analyzed via FACS DiVa software.
(§2) 100% max response was determined for each individual as the DMSO treated control stimulated with either 200 µM PAR4-AP, 20 µM PAR1-AP, or 10 nM thrombin. Samples treated with antagonist were normalized as a percentage of the DMSO treated control. Normalized data was plotted in GraphPad PRISM v.5.0. Dose response curves and subsequent IC50 values were generated using the ‘log(inhibitor) vs. response variable slope’ parameter. Data plotted is mean±S.E.M. or mean±S.D.

PAR4 [2] = biological target: T1, PAR4 (Homo sapiens, UniProt Q96RI0); test: High-throughput platelet calcium mobilization assay (PAR4-AP stimulated); type: cell-based; details: for Emax at 10 µM: 10 µM compound 6 min prior to 80 µM PAR4-AP, Figure 2D, read-out: PAR4 mediated platelet calcium mobilization, percent of the maximum response
T1 construct: Human platelets express both PAR1 and PAR4; endogenous in cells; host or cells: washed human platelets from volunteer donors
T1 sequence (Q96RI0 18-385): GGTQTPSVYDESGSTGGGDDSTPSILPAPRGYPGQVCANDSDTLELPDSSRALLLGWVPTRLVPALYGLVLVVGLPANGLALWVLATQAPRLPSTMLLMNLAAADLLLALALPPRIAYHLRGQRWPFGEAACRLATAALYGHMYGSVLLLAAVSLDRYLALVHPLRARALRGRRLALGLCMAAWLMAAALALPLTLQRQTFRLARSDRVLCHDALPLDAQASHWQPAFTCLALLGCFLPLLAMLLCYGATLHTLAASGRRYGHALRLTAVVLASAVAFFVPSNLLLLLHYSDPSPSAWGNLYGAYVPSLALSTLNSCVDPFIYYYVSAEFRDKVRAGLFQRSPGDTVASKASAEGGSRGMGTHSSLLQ
Procedure: Washed human platelets were prepared via standard procedure and suspended in Tyrode’s buffer containing 0.1% BSA. Platelets were dye loaded for 1 hour with Fluo4-AM in calcium assay buffer (1X HBSS without calcium or magnesium, 20 mM HEPES, 2.5 mM probenecid, 1 mM EGTA, 0.1% BSA). The calcium assay buffer containing dye is mixed with platelets to yield a final concentration of 2.5 µg/mL Fluo4-AM and 1.0×10^8 platelets/mL. 60 µL of dye loaded platelets were added to each well of a NUNC 384 well plate black optical bottom plate (Thermo, Rochester, NY). Fluorescence measurements were recorded on a Functional Drug Screening System (FDSS) 6000, Hamamatsu (Hamamatsu, Japan) at 37°C. […] Compounds were injected by the FDSS and occurred simultaneously across each plate. Experiments reported were performed in triplicate, on the same plate, from the indicated number of donors. 480∶540 (ex:em) was measured each second for a total of 12 minutes. The final concentration of DMSO in the assay was 0.5%.
The difference between basal (defined as t0) and maximal relative fluorescence unit (RFU) values (ΔRFUs) for ex:em 480∶540 was determined for each well. The triplicate ΔRFU for DMSO treated control wells stimulated with 80 µM PAR4-AP was averaged and the average value ΔC was set to 100% max response for each plate. Each well was subsequently normalized as a percent of the ΔC control (value/ΔC×100). Normalized data was plotted in GraphPad PRISM v.5.0.

PAR4 [3] = biological target: T1, PAR4; test: PAR4-AP mediated platelet aggregation (light transmittance); type: cell-based; details: 200 µM PAR4-AP; compound 10 min before; Figure 6
Procedure: (§3) Briefly, washed human platelets were prepared to a final concentration of 2.0×10^8 platelets/mL in Tyrode’s buffer containing 0.1% BSA. Compounds or DMSO control were added 10 minutes prior to stimulation with either PAR1-AP or PAR4-AP. The final DMSO concentration was 0.1%. Light transmittance was recorded by a Chrono-Log Model 700 Aggregometer.
(§4) The percent of light transmitted as reported by the aggregometer was recorded in GraphPad PRISM v.5.0. 100% light transmission signifies full platelet aggregation.

PAR4 [4] = biological target: T1, PAR4; test: Flow cytometry: PAR4-AP mediated GPIIbIIIa activation (PAC-1 binding) in washed platelets; type: cell-based; details: for IC50: 200 µM PAR4-AP, compound 5 min before, normalized to DMSO control, Figure 4; for Extent of antagonism of PAR4 mediated platelet response / GPIIbIIIa activation: maximal (200 µM) PAR4-AP, up to 10 µM compound
Procedure: as §1, with “Platelet activity was quenched by the addition ice cold 1.5% paraformaldehyde followed by dilution in 1X phosphate buffered saline.” left out
as §2

PAR1 [5] = biological target: T2, PAR1 (Homo sapiens, UniProt P25116); test: Flow cytometry: PAR1-AP mediated GPIIbIIIa activation (PAC-1 binding) in washed platelets; type: cell-based; details: 20 µM PAR1-AP
T2 construct: Human platelets express both PAR1 and PAR4; endogenous in cells; host or cells: washed human platelets from volunteer donors
T2 sequence (P25116 22-425): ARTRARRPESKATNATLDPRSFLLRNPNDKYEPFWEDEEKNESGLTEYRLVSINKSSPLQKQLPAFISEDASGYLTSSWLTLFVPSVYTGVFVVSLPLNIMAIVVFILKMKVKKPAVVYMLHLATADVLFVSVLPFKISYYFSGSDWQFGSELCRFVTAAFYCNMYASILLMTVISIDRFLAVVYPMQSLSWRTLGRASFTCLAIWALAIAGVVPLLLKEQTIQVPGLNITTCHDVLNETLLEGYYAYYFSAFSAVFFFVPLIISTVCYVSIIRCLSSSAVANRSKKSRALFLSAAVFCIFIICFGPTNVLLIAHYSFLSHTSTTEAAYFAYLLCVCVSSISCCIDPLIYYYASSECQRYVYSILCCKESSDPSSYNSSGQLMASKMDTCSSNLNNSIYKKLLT
Procedure: as §1, with “Platelet activity was quenched by the addition ice cold 1.5% paraformaldehyde followed by dilution in 1X phosphate buffered saline.” left out
as §2

PAR1 [6] = biological target: T2, PAR1; test: PAR1-AP mediated platelet aggregation (light transmittance); type: cell-based; details: 20 µM PAR1-AP; compound 10 min before; Figure 6
Procedure: as §3, §4

PAR4 [7] = biological target: T1, PAR4; design: method as in PMID 12083482; details: cited from earlier work
PAR4 [8] = biological target: T1, PAR4; test: Flow cytometry: PAR4-AP mediated P-selectin expression (anti-CD62P binding) in washed platelets; type: cell-based
Procedure: as §1, with “Platelet activity was quenched by the addition ice cold 1.5% paraformaldehyde followed by dilution in 1X phosphate buffered saline.” left out
as §2

[9] = 1 µM compound + 10 µM RWJ-56110, 10 nM thrombin

Row | Emax at 10 µM (PAR4 [2]) | Inhibition of PAR4 mediated platelet aggregation (PAR4 [3]) | IC50 (PAR4 [4]) | Extent of antagonism of PAR4 mediated platelet response / GPIIbIIIa activation (PAR4 [4]) | Compound | Reduction of thrombin mediated GPIIbIIIa activation in combination with RWJ-56110 [1, 9] | Addition of the effect of RWJ-56110 on thrombin and the effect of the compound on PAR1-AP [1] | other results
1 | – | – | – | – | CCOC(=O)c1ccc(-c2cn(Cc3ccccc3)c3ccccc23)cc1 [Compound 1] | 37.1±6.4% | 32.5±6.1% | –
2 | < 50% | non-significantly | 1000 ± 1100 nM | fully antagonize | CCOC(=O)c1ccc(-c2cn(Cc3ccccn3)c3ccccc23)cc1 [Compound 3] | – | – | Reduction of thrombin mediated GPIIbIIIa activation in combination with RWJ-56110 ([1]; 3.16 µM compound + 10 µM RWJ-56110, 10 nM thrombin): 14±2%; Reduction of PAR1 mediated GPIIbIIIa activation (PAR1 [5]; 3.16 µM compound): 7.2±1.3%
3 | < 50% | significantly inhibit PAR4 | 170 ± 1 nM | fully antagonize | CCOC(=O)c1ccc(-c2cn(Cc3ccccc3)c3ncccc23)cc1 [Compound 5] | 17±2% | – | Reduction of PAR1 mediated GPIIbIIIa activation (PAR1 [5]; 1 µM compound): 7.2±1.4%; Inhibition of PAR1 mediated platelet aggregation (PAR1 [6]): not PAR1 mediated platelet aggregation
4 | – | – | – | – | NCC[C@H](NC(=O)[C@H](Cc1ccc(F)c(F)c1)NC(=O)Nc1ccc2c(CN3CCCC3)cn(Cc3c(Cl)cccc3Cl)c2c1)C(=O)NCc1ccccc1 [RWJ-56110, reference compound] | – | – | Inhibition of thrombin mediated GPIIbIIIa activation, compound alone ([1]; 10 µM RWJ-56110 alone, 10 nM thrombin): 18.4±5.4%

Row | Compound | Emax at 10 µM (PAR4 [2]) | Inhibition of PAR4 mediated platelet aggregation (PAR4 [3]) | IC50 (PAR4 [4]) | Extent of antagonism of PAR4 mediated platelet response / GPIIbIIIa activation (PAR4 [4]) | Reduction of thrombin mediated GPIIbIIIa activation in combination with RWJ-56110 [1, 9] | Addition of the effect of RWJ-56110 on thrombin and the effect of the compound on PAR1-AP [1] | other results
5 | CCOC(=O)c1ccc(-c2nn(Cc3ccccc3)c3ccccc23)cc1 [YD-3, ethyl 4-(1-benzyl-1H-indazol-3-yl)benzoate, reference compound] | – | – | 26 ± 1 nM | – | 42.9±9.7% | 26.8±6.0% | Inhibition time course of PAR4-AP calcium mobilization (PAR4 [2]; 10 µM YD-3, increasing treatment times, then 80 µM PAR4-AP, Figure 2B): significant inhibition by YD-3 occurred as early as 1 minute; Mechanism of action against PAR4 by platelet aggregation (PAR4 [7]): competitive in nature; IC50 (PAR4 [8]; 200 µM PAR4-AP, from raw mean fluorescent intensity values, Figure S4): 16.4 ± 1.1 nM; Mechanism of action against PAR4 (shift of PAR4-AP concentration response curve) (PAR4 [8]; P-selectin expression, twelve point PAR4-AP CRCs with increasing antagonist, Figure 7): competitive mechanism of action
